Reference: ChEMBL document CHEMBL1136454, “Synthesis and biological activity of N-Acylated ornithine analogues of daptomycin” (Bioorg Med Chem Lett, 2003)
Converted amounts (≈) assume the structure as drawn.

Assays:
[1] = test system: Enterococcus faecalis; experiment: Antibacterial activity against Enterococcus faecalis ATCC 49452; type: functional
[2] = test system: Staphylococcus aureus; experiment: Antibacterial activity against methicillin resistant Staphylococcus aureus ATCC 43300 (MRSA); type: functional
[3] = test system: Mus musculus; experiment: Antibacterial activity was determined by protection from death of mice infected by methicillin resistant Staphylococcus aureus (MRSA) upon sc administration of compound after 4 hr of post infection; type: functional; details: read-out: PD50
[4] = test system: Enterococcus faecium; experiment: Antibacterial activity against Enterococcus faecium ATCC 6569; type: functional
[5] = test system: Staphylococcus aureus; experiment: Antibacterial activity against methicillin susceptible Staphylococcus aureus ATCC 29213 (MSSA ); type: functional
[6] = In vivo Cmax in mice at dose of 50 mg/kg; type: ADME, organism-based; design: dose 50 mg/kg; details: mouse
[7] = In vivo area under curve (AUC) was determined in murine septicemia at dose of 50 mg/kg; type: ADME, organism-based; design: dose 50 mg/kg; details: mouse
[8] = In vivo Tmax was determined in murine septicemia at dose of 50 mg/kg; type: ADME, organism-based; design: dose 50 mg/kg; details: mouse
[9] = In vivo volume distribution (Vd) was determined in murine septicemia at dose of 50 mg/kg; type: ADME, organism-based; design: dose 50 mg/kg; details: mouse
[10] = In vivo half life period was determined in murine septicemia at dose of 50 mg/kg; type: ADME, organism-based; design: dose 50 mg/kg; details: mouse
[11] = In vivo total clearance was determined in murine septicemia at dose of 50 mg/kg; type: ADME, organism-based; design: dose 50 mg/kg; details: mouse, read-out: CLtotal (converted)
[12] = In vivo area under curve (AUC) was determined in murine septicemia at dose of 100 mg/kg; type: ADME, organism-based; design: dose 100 mg/kg; details: mouse
[13] = In vivo volume distribution (Vd) was determined in murine septicemia at dose of 100 mg/kg; type: ADME, organism-based; design: dose 100 mg/kg; details: mouse
[14] = In vivo Tmax was determined in murine septicemia at dose of 100 mg/kg; type: ADME, organism-based; design: dose 100 mg/kg; details: mouse
[15] = In vivo total clearance was determined in murine septicemia at dose of 100 mg/kg; type: ADME, organism-based; design: dose 100 mg/kg; details: mouse, read-out: CLtotal (converted)
[16] = In vivo Cmax in mice at dose of 100 mg/kg; type: ADME, organism-based; design: dose 100 mg/kg; details: mouse

Row | SMILES | MIC [1] [µg/mL] | MIC [2] [µg/mL] | ED50 [3] [mg/kg] | MIC [4] [µg/mL] | MIC [5] [µg/mL] | Cmax [6] [µg/mL] | AUC [7] [µg·h/mL] | Tmax [8] [h] | Vd [9] [L/kg] | half-life [10] [h] | clearance [11] [mL/min/kg] | AUC [12] [µg·h/mL] | Vd [13] [L/kg] | Tmax [14] [h] | clearance [15] [mL/min/kg] | Cmax [16] [µg/mL]
1 | CCCCCCCCCC(=O)N[C@@H](Cc1c[nH]c2ccccc12)C(=O)N[C@H](CC(N)=O)C(=O)N[C@@H](CC(=O)O)C(=O)N[C@@H]1C(=O)NCC(=O)N[C@@H](CCCNC(=O)C(N)CCc2c[nH]c3ccccc23)C(=O)N[C@@H](CC(=O)O)C(=O)N[C@H](C)C(=O)N[C@@H](CC(=O)O)C(=O)NCC(=O)N[C@H](CO)C(=O)N[C@@H]([C@H](C)CC(=O)O)C(=O)N[C@@H](CC(=O)c2ccccc2N)C(=O)O[C@@H]1C (some centres undefined) [listing 1 of 2 here] | 3.1 (≈ 1.7 µM) | 0.78 (≈ 0.428 µM) | 0.15 | 1.56 (≈ 0.857 µM) | 0.78 (≈ 0.428 µM) | – | – | – | – | – | – | – | – | – | – | –
2 | CCCCCCCCCC(=O)N[C@@H](Cc1c[nH]c2ccccc12)C(=O)N[C@H](CC(N)=O)C(=O)N[C@@H](CC(=O)O)C(=O)N[C@@H]1C(=O)NCC(=O)N[C@@H](CCCNC(=O)C2Cc3c([nH]c4ccccc34)CN2)C(=O)N[C@@H](CC(=O)O)C(=O)N[C@H](C)C(=O)N[C@@H](CC(=O)O)C(=O)NCC(=O)N[C@H](CO)C(=O)N[C@@H]([C@H](C)CC(=O)O)C(=O)N[C@@H](CC(=O)c2ccccc2N)C(=O)O[C@@H]1C (some centres undefined) [listing 1 of 2 here] | 12.5 (≈ 6.87 µM) | 0.78 (≈ 0.429 µM) | 1.75 | 3.1 (≈ 1.7 µM) | 0.78 (≈ 0.429 µM) | – | – | – | – | – | – | – | – | – | – | –
3 | CCCCCCCCCC(=O)N[C@@H](Cc1c[nH]c2ccccc12)C(=O)N[C@H](CC(N)=O)C(=O)N[C@@H](CC(=O)O)C(=O)N[C@@H]1C(=O)NCC(=O)N[C@@H](CCCNC(=O)[C@@H](N)CCCCN)C(=O)N[C@@H](CC(=O)O)C(=O)N[C@H](C)C(=O)N[C@@H](CC(=O)O)C(=O)NCC(=O)N[C@H](CO)C(=O)N[C@@H]([C@H](C)CC(=O)O)C(=O)N[C@@H](CC(=O)c2ccccc2N)C(=O)O[C@@H]1C | – | – | – | – | – | 297 | 589 | 0.5 | 0.147 | 1.2 | 1.42 | – | – | – | – | –
4 | CCCCCCCCCC(=O)N[C@@H](Cc1c[nH]c2ccccc12)C(=O)N[C@H](CC(N)=O)C(=O)N[C@@H](CC(=O)O)C(=O)N[C@@H]1C(=O)NCC(=O)N[C@@H](CCCNC(=N)N)C(=O)N[C@@H](CC(=O)O)C(=O)N[C@H](C)C(=O)N[C@@H](CC(=O)O)C(=O)NCC(=O)N[C@H](CO)C(=O)N[C@@H]([C@H](C)CC(=O)O)C(=O)N[C@@H](CC(=O)c2ccccc2N)C(=O)O[C@@H]1C [listing 1 of 2 here] | – | – | – | – | – | 254 | 766 | 0.5 | 0.198 | 2.1 | 1.08 | – | – | – | – | –
5 | CCCCCCCCCC(=O)N[C@@H](Cc1c[nH]c2ccccc12)C(=O)N[C@H](CC(N)=O)C(=O)N[C@@H](CC(=O)O)C(=O)N[C@@H]1C(=O)NCC(=O)N[C@@H](CCCN)C(=O)N[C@@H](CC(=O)O)C(=O)N[C@H](C)C(=O)N[C@@H](CC(=O)O)C(=O)NCC(=O)N[C@H](CO)C(=O)N[C@@H]([C@H](C)CC(=O)O)C(=O)N[C@@H](CC(=O)c2ccccc2N)C(=O)O[C@@H]1C | 1.56 (≈ 0.963 µM) | 0.39 (≈ 0.241 µM) | 0.22 | 1.56 (≈ 0.963 µM) | 0.78 (≈ 0.481 µM) | 214 | 489 | 0.5 | 0.251 | 1.7 | 1.7 | – | – | – | – | –
6 | CCCCCCCCCC(=O)N[C@@H](Cc1c[nH]c2ccccc12)C(=O)N[C@H](CC(N)=O)C(=O)N[C@@H](CC(=O)O)C(=O)N[C@@H]1C(=O)NCC(=O)N[C@@H](CCCNC(=O)c2ccccc2N)C(=O)N[C@@H](CC(=O)O)C(=O)N[C@H](C)C(=O)N[C@@H](CC(=O)O)C(=O)NCC(=O)N[C@H](CO)C(=O)N[C@@H]([C@H](C)CC(=O)O)C(=O)N[C@@H](CC(=O)c2ccccc2N)C(=O)O[C@@H]1C [listing 1 of 2 here] | 12.5 (≈ 7.18 µM) | 1.56 (≈ 0.897 µM) | 1.1 | 6.25 (≈ 3.59 µM) | 0.78 (≈ 0.448 µM) | – | – | – | – | – | – | – | – | – | – | –
7 | CCCCCCCCCC(=O)N[C@@H](Cc1c[nH]c2ccccc12)C(=O)N[C@H](CC(N)=O)C(=O)N[C@@H](CC(=O)O)C(=O)N[C@@H]1C(=O)NCC(=O)N[C@@H](CCCNC(=O)C(N)CCc2c[nH]c3ccccc23)C(=O)N[C@@H](CC(=O)O)C(=O)N[C@H](C)C(=O)N[C@@H](CC(=O)O)C(=O)NCC(=O)N[C@H](CO)C(=O)N[C@@H]([C@H](C)CC(=O)O)C(=O)N[C@@H](CC(=O)c2ccccc2N)C(=O)O[C@@H]1C (some centres undefined) [listing 2 of 2 here] | – | – | – | – | – | 258 | 936 | 1 | 0.216 | 2.8 | 0.883 | – | – | – | – | –
8 | CCCCCCCCCC(=O)N[C@@H](Cc1c[nH]c2ccccc12)C(=O)N[C@H](CC(N)=O)C(=O)N[C@@H](CC(=O)O)C(=O)N[C@@H]1C(=O)NCC(=O)N[C@@H](CCCNC(=O)c2ccccc2N)C(=O)N[C@@H](CC(=O)O)C(=O)N[C@H](C)C(=O)N[C@@H](CC(=O)O)C(=O)NCC(=O)N[C@H](CO)C(=O)N[C@@H]([C@H](C)CC(=O)O)C(=O)N[C@@H](CC(=O)c2ccccc2N)C(=O)O[C@@H]1C [listing 2 of 2 here] | – | – | – | – | – | – | – | – | – | 2.4 | – | 1500 | 0.23 | 0.5 | 1.1 | 464
9 | CCCCCCCCCC(=O)N[C@@H](Cc1c[nH]c2ccccc12)C(=O)N[C@H](CC(N)=O)C(=O)N[C@@H](CC(=O)O)C(=O)N[C@@H]1C(=O)NCC(=O)N[C@@H](CCCNC(=O)C2Cc3c([nH]c4ccccc34)CN2)C(=O)N[C@@H](CC(=O)O)C(=O)N[C@H](C)C(=O)N[C@@H](CC(=O)O)C(=O)NCC(=O)N[C@H](CO)C(=O)N[C@@H]([C@H](C)CC(=O)O)C(=O)N[C@@H](CC(=O)c2ccccc2N)C(=O)O[C@@H]1C (some centres undefined) [listing 2 of 2 here] | – | – | – | – | – | 418 | – | 6 | – | > 6 | – | – | – | – | – | –
10 | CCCCCCCCCC(=O)N[C@@H](Cc1c[nH]c2ccccc12)C(=O)N[C@H](CC(N)=O)C(=O)N[C@@H](CC(=O)O)C(=O)N[C@@H]1C(=O)NCC(=O)N[C@@H](CCCNC(=N)N)C(=O)N[C@@H](CC(=O)O)C(=O)N[C@H](C)C(=O)N[C@@H](CC(=O)O)C(=O)NCC(=O)N[C@H](CO)C(=O)N[C@@H]([C@H](C)CC(=O)O)C(=O)N[C@@H](CC(=O)c2ccccc2N)C(=O)O[C@@H]1C [listing 2 of 2 here] | 12.5 (≈ 7.52 µM) | 0.78 (≈ 0.469 µM) | 0.17 | 6.25 (≈ 3.76 µM) | 0.78 (≈ 0.469 µM) | – | – | – | – | – | – | – | – | – | – | –
11 | CCCCCCCCCC(=O)N[C@@H](Cc1c[nH]c2ccccc12)C(=O)N[C@H](CC(N)=O)C(=O)N[C@@H](CC(=O)O)C(=O)N[C@@H]1C(=O)NCC(=O)N[C@@H](CCCNC(=O)c2c(N)ccc3ccccc23)C(=O)N[C@@H](CC(=O)O)C(=O)N[C@H](C)C(=O)N[C@@H](CC(=O)O)C(=O)NCC(=O)N[C@H](CO)C(=O)N[C@@H]([C@H](C)CC(=O)O)C(=O)N[C@@H](CC(=O)c2ccccc2N)C(=O)O[C@@H]1C [listing 1 of 2 here] | 6.25 (≈ 3.49 µM) | 0.78 (≈ 0.436 µM) | 2.1 | 6.25 (≈ 3.49 µM) | 0.78 (≈ 0.436 µM) | – | – | – | – | – | – | – | – | – | – | –
12 | CCCCCCCCCC(=O)N[C@@H](Cc1c[nH]c2ccccc12)C(=O)N[C@H](CC(N)=O)C(=O)N[C@@H](CC(=O)O)C(=O)N[C@@H]1C(=O)NCC(=O)N[C@@H](CCCNC(=O)c2c(N)ccc3ccccc23)C(=O)N[C@@H](CC(=O)O)C(=O)N[C@H](C)C(=O)N[C@@H](CC(=O)O)C(=O)NCC(=O)N[C@H](CO)C(=O)N[C@@H]([C@H](C)CC(=O)O)C(=O)N[C@@H](CC(=O)c2ccccc2N)C(=O)O[C@@H]1C [listing 2 of 2 here] | – | – | – | – | – | 230 | 2820 | 4 | 0.143 | 5.6 | 0.3 | – | – | – | – | –
